Consider four compounds from publication PMC2745359, “Engineering and validation of a novel lipid thin film for biomembrane modeling in lipophilicity determination of drugs and xenobiotics” (Journal of Biological Engineering, 2009).

Series [1] can be described thus: RPTLC lipophilicity determination on silica-supported leucaena oil (LO) lipid film. From the text: (§1) Liquid paraffin in n-hexane (5% w/v) was used as coating solution of silica gel support, to produce the layer which was taken as benchmark. Thin film of liquid paraffin was placed on the silica surface by ascending development of the TLC plates in the coating solution and allowing the plates to air dry afterwards.
(§2) The optimal film thickness was designed by testing the alternative films against array of LP benchmark requirements and constraint. Using nabumetone as model compound and varying the concentration of organic modifier (methanol) in the mobile phase, a plot of linear regression of Rm against methanol fraction was made for LP and all alternative LO layers. Rm was obtained from the expression [drawing 1] where Rf is the chromatographic retardation factor [5]. Retention behavior of nabumetone on LP was compared with its behavior on the alternative LO layers by statistical comparison of the slope (S, specific hydrophobic surface area) and y-intercept, (Rmw, basic lipophilicity parameter) of the regression plot of Rm versus methanol fraction. The retention behavior is described by the regression equation: Rm = Sφ + Rmw (where φ is the methanol fraction). Plate development cycle time for a specific methanol fraction (0.5) was set as design constraint. This was compared by recording the time required for the mobile phase (50% methanol) to traverse 7 cm path length of the various silica-supported layers.
(§3) The engineered lipid film was validated by comparing its performance with the prior art; liquid paraffin film and octadecysilane (ODS) bonded phase, which was selected as reference.
(§4) The computational model employed is a transformation of the planar chromatographic retardation factor Rf according to the following equation: […]
(§5) Linear regression of the Rm values against the fraction of methanol organic modifier in the mobile phase was performed according to the equation: […]
(§6) S, is the specific hydrophobic surface area, while Rmw is the basic lipophilicity parameter calculated from the chromatographic data. The ultimate derived lipophilicity parameter of interest is the isocratic chromatographic hydrophobicity index (φo), which signifies the methanol fraction that will produce half-maximum solute migration on the chromatogram for each compound. […] Derived lipophilicity parameter (φo) values were correlated with Log P and several ChemSketch calculated molecular descriptors to provide quantitative structure property relationships (QSPR) as previously described.

Series [2] can be described thus: RPTLC lipophilicity determination on octadecylsilane (ODS) bonded layer. The conditions noted are these: for S (specific hydrophobic surface area): slope of Rm vs methanol fraction; for φo (isocratic chromatographic hydrophobicity index): φo = -Rmw/S, methanol modifier. Here is the method:
as §3, §4, §5, §6

A short description of series [3]: RPTLC lipophilicity determination on liquid paraffin (LP) film. The conditions noted are these: 5% LP film; for S (specific hydrophobic surface area): slope of Rm vs methanol fraction; for Rmw (basic lipophilicity parameter): y-intercept of Rm vs methanol fraction; for φo (isocratic chromatographic hydrophobicity index): φo = -Rmw/S, methanol modifier.
Source text: as §1, §2, §3, §4, §5, §6

The conditions of series [4]: ref 31 (ADBA), 32 (NPX), 33 (NBT), 34 (HF); cited from earlier work.
On the set-up of series [5]: method as in PMID 17767395. The conditions noted are these: clinical use; cited from earlier work.
The mark [6] stands for this setting: 3.75% LO film, slope of Rm vs methanol fraction.
The mark [7] stands for this setting: 3.75% LO film, y-intercept of Rm vs methanol fraction.
Where [8] appears, read: 3.75% LO film, φo = -Rmw/S, methanol modifier.
[9] abbreviates: ODS layer, y-intercept of Rm vs methanol fraction.

As for `CCCCN(CCCC)CCC(O)c1cc2c(Cl)cc(Cl)cc2c2cc(C(F)(F)F)ccc12` (stereo not drawn) [Halofantrine, halofantrine], the “S (specific hydrophobic surface area)” value in series [1] (setting [6]) is recorded as -8.13; in series [2] (ODS layer) it was -4.55; in series [3], -6.54. The “Rmw (basic lipophilicity parameter)” value was 8.40 in series [1] (setting [7]), 4.94 in series [2] (setting [9]) and 6.76 in series [3]. In addition, the “φo (isocratic chromatographic hydrophobicity index)” value in series [1] (setting [8]) came out at 1.03; in series [2] (ODS layer) it was 1.09; in series [3] it was 1.03. The “Log P (octanol/water)” value in series [4] is reported as 3.25.
As to `CC(C)(C)c1ccc(C(O)CCCN2CCC(C(O)(c3ccccc3)c3ccccc3)CC2)cc1` (stereo not drawn) [Terfenadine, terfenadine], the “Cardiotoxicity (QT prolongation)” value in series [5] is on record as “withdrawn from clinical use because of cardiotoxicity”.
In the case of `COc1ccc2cc(CCC(C)=O)ccc2c1` [Nabumetone, nabumetone], the “Rmw (basic lipophilicity parameter)” value in series [1] (1.25% LO film) was determined as 1.05; in series [1] (2.5% LO film), 1.94; in series [1] (setting [7]) it was 2.58; in series [1] (5% LO film) it was 3.48; in series [2], 2.77; in series [3], 2.43. For the same compound, the “S (specific hydrophobic surface area)” value was -2.33 in series [1] (1.25% LO film); -3.14 in series [1] (2.5% LO film); -3.95 in series [1] (setting [6]); -4.67 in series [1] (5% LO film); -3.13 in series [2] (ODS layer); -3.48 in series [3]. Also, the “φo (isocratic chromatographic hydrophobicity index)” value was determined as 0.45 in series [1] (1.25% LO film); 0.62 in series [1] (2.5% LO film); 0.66 in series [1] (setting [8]); 0.75 in series [1] (5% LO film); 0.89 in series [2] (ODS layer); 0.70 in series [3]. The “Log P (octanol/water)” value in series [4] was 3.27.
Turning to `Nc1c([N+](=O)[O-])cc(C(=O)O)cc1[N+](=O)[O-]` [ADBA, 4-amino-3,5-dinitrobenzoic acid], the figures for the “S (specific hydrophobic surface area)” value in series [1] (setting [6]), in series [2] (ODS layer) and in series [3] were -8.84, -1.41 and -5.99, respectively. For the same compound, the “Rmw (basic lipophilicity parameter)” value in series [1] (setting [7]) is given as -0.646; in series [2] (setting [9]), -0.102. The “φo (isocratic chromatographic hydrophobicity index)” value in series [1] (setting [8]) was -0.073; in series [2] (ODS layer), -0.073; in series [3], -0.081. Moreover, the “Log P (octanol/water)” value in series [4] is on record as -1.50.
